In patent publication US7709443B2, “Cyclic peptide antitumor agents” (Northwestern University, priority 2003, dated 2010):
In brackets after ≈: the same amount, converted by molar mass. Where two headings read alike, the source gives them in different places. Square brackets hold non-standard residues; d marks the D form. Peptide text beside a SMILES is read from it. Phe(4-Br) = N[C@@H](Cc1ccc(Br)cc1)C(=O)O; Phe(4-I) = N[C@@H](Cc1ccc(I)cc1)C(=O)O; NMeF = CN[C@@H](Cc1ccccc1)C(=O)O; Hica(2S) = CC(C)C[C@H](O)C(=O)O; NMeL = CN[C@@H](CC(C)C)C(=O)O; NMeV = CN[C@H](C(=O)O)C(C)C; Aib = CC(C)(N)C(=O)O

Key:
[1] = tested on: HCT-116 (human colon carcinoma); test: cells; conditions: for times more potent than sansalvamide A toward HCT-116: relative to sansalvamide A
From the text: The HCT-116 human colon adenocarcinoma screen is a tissue culture first line assay to detect inherent cytotoxicity against malignant cancer cells. This strain is considered to be an “indicator strain” by many for the selection of inhibitors that target solid tumors. The assay is a calorimetric endpoint assay which can be produced in 96-well format trays. Data are acquired by plate reader and dose response curves are produced by computer analysis. […] This assay is run routinely as described below and would be understood in the art.
1. Media (1000 mL McCoy's 5A Medium, 114 mL Fetal Bovine Serum, 25 mL Hepes buffer solution (IM), 12.5 mL Penicillin-Streptomycin solution)
2. Cell line (HCT-116, human colon cancer cell line)
3. Indicator (MTS and PMS in DPBS)
5. Standard anticancer drug (etoposide (VP-16); stock is 4 mg/mL in DMSO
6. DPBS (without CaCl2 and MgCl2)
1. Remove medium from the cells and rinse with 10 mL sterile DPBS.
3. Allow to stand in hood for 1 minute.
4. Remove trypsin with sterile pipette.
5. Allow flask to stand in hood for 2-5 minutes.
6. Add 10 mL of media to flask and pipette up and down to gently break up cell clumps.
7. Count the number of cells using a hemacytometer.
8. Determine # of plates needed, and total volume of cell suspension (16 or 18 mL per plate).
9. Dilute cells to a final concentration of 2.5×10^4 cells/mL in a sterile flask.
10. Pour cell suspension into a sterile trough.
For Serial Dilution Plates
1. Add 175 μL to each well in the first row of a 96 well plate.
2. Add 150 μL to the rest of the wells in A1-A10 & A12.
3. In row 11 add 150 μL cell suspension to the first 6 wells and only media to the last two.
For Single Concentration Plates
1. Add 150 μL of sterile media to G11 & H11.
2. Add 150 μL of cell suspension to all other wells.
3. Add 25 μL more to well H1.
Incubate plates overnight at 37° C. & 5% CO2
1. Add 25 μL of test compounds @ 10 mg/mL to A1-A10, 25 μL of DMSO to A11 & 25 μL of etoposide (4 mg/mL) to A12.
2. Using a twelve channel pipette, mix well then remove 50 μL from the first row and transfer to the next row, repeat down the plate until row F, then remove tip # 11 and continue down plate discarding the last 50 μL.
3. Incubate plates for 72 h.
1. Add 20 μL of MTS/PMS solution to each well.
3. Read plates @490 nm on plate reader.

[2] = tested on: PC-3 (Prostate) human cancer cell line; conditions: three days
Description: (§4) Cells were plated at 5,000 cells per well in 24-well plates, treated for three days, then counted. Cell number was normalized to the number of cells in untreated control (DMSO) cells, also after three days.

[3] = tested on: MDA-MB231 (Breast) human cancer cell line; conditions: three days
Description: as §4

[4] = tested on: WM115 (Melanoma) human cancer cell line; conditions: three days
Description: as §4

[5] = tested on: Caspase-3 activity in PC-3 cells; test: Caspase-3 activity, fluorometric assay; assay type: cell-based, human; conditions: relative to DMSO and staurosporin controls
Description: Caspase-3 is a mediator of apoptosis, and induction of Caspase-3 activity indicates induction of apoptosis. Activity of Caspase-3 was measured by a fluorometric assay, as described in the literature, referenced above.

AsPC-1 cells = test: Cell proliferation assay (Guava ViaCount cell number), AsPC-1; assay type: cell-based, human; conditions: AsPC-1, 10 μM, 72 hours, vs vehicle (DMSO)
Description: (§1) Given the results of the preceding example, several compounds of this invention were tested against human pancreatic cancer cell lines. Two cancer cell lines were selected: S2-013 (well-differentiated) and AsPC-1 (poorly differentiated). These cell lines were purchased from American Type Culture Collection (Manassas, Va.). Both cell lines were grown in DMEM and plated as monolayers in the medium supplemented with 10% fetal bovine serum in a humidified atmosphere of […] and 5% CO2 at 37° C. The cells were regularly seeded into 75 cm^2 flasks with media changes every second or third day. For experiments, cells were grown to 70% confluence, digested with trypsin-EDTA, and plated in either 6-, 24-, or 48-well plates.
(§2) Cell Proliferation Assay. Cells were regularly seeded into three 6-well plates and incubated at 37° C. for 24 hours. Cells were then cultured in serum-free medium for another 24 hours and treated in fresh serum-free medium with or without 10 μM of cyclic peptide 1k for 24, 48, and 72 hours. At the end of each time period, the cells were trypsinized to produce a single cell suspension, and the cell number in each well was determined using Guava Technologies=ViaCount Assay (Guava Technologies Inc, Hayward, Calif.).
(§3) Statistical Analysis. Data were analyzed by ANOVA with Dunnett's or Bonferoni's corrections for multiple comparisons, as appropriate. This analysis was performed with the Prism software package (GraphPad, San Diego, Calif.). Data were expressed as mean±SEM.

S2-013 cell line = test: Cell proliferation assay (Guava ViaCount cell number), S2-013; assay type: cell-based, human; conditions: S2-013, 10 μM, 72 hours, vs vehicle (DMSO)
Description: as §1, §2, §3

Row | Compound | IC50 ([1]; HCT-116 bioassay, Table 1) [µg/mL] | Fold Induction Over DMSO control ([2]; PC-3, 1 μM) | Fold Induction Over DMSO control ([2]; PC-3, 10 μM) | Fold Induction Over DMSO control ([3]; MDA-MB231, 1 μM) | Fold Induction Over DMSO control ([3]; MDA-MB231, 10 μM) | Fold Induction Over DMSO control ([4]; WM115, 1 μM) | Fold Induction Over DMSO control ([4]; WM115, 10 μM) | times more potent than sansalvamide A toward HCT-116 [1] | Caspase-3 activity [5] | IC50 ([1]; Homo sapiens, HCT-116) [µg/mL] | change in number of cells (AsPC-1 cells) | change in number of cells (S2-013 cell line)
1 | CC(C)C[C@@H]1NC(=O)[C@H](C(C)C)NC(=O)[C@H](CC(C)C)OC(=O)[C@H](CC(C)C)NC(=O)[C@H](Cc2ccc(Br)cc2)NC1=O (cyclo(L[Phe(4-Br)]L[Hica(2S)]V)) | 4.5 (≈ 6.76 µM) | – | – | – | – | – | – | – | – | – | – | –
2 | CC(C)C[C@@H]1NC(=O)[C@H](Cc2ccccc2)NC(=O)[C@H](CC(C)C)NC(=O)[C@H](C(C)C)N(C)C(=O)[C@H](CC(C)C)NC1=O [Compound 1f] (cyclo(FLL[NMeV]L)) | – | 0.92 | 0.74 | 1.04 | 0.26 | 1.00 | 1.06 | – | – | – | – | –
3 | CC(C)C[C@@H]1NC(=O)[C@H](Cc2ccccc2)NC(=O)[C@H](CC(C)C)NC(=O)[C@H](C(C)C)NC(=O)[C@H](CC(C)C)NC1=O [Compound 1, sansalvamide A peptide] (cyclo(FLLVL)) | 0.98 (≈ 1.67 µM) | 1.03 | 0.90 | 0.91 | 0.69 | 0.92 | 0.56 | about 10 times | – | – | – | –
4 | CC(C)C[C@@H]1NC(=O)[C@H](Cc2ccc(Br)cc2)NC(=O)[C@H](CC(C)C)NC(=O)[C@H](C(C)C)N(C)C(=O)[C@H](CC(C)C)NC1=O [Compound 1g] (cyclo([Phe(4-Br)]LL[NMeV]L)) | – | 0.74 | 0.67 | 0.88 | 0.31 | 1.02 | 0.84 | – | – | – | – | –
5 | CC(C)C[C@@H]1NC(=O)[C@H](Cc2ccc(Br)cc2)NC(=O)[C@H](CC(C)C)NC(=O)[C@H](C(C)C)NC(=O)[C@H](CC(C)C)NC1=O [Compound 1a] (cyclo([Phe(4-Br)]LLVL)) | – | 0.94 | 0.74 | 0.95 | 0.60 | 0.85 | 0.99 | – | – | – | – | –
6 | CC(C)C[C@@H]1NC(=O)[C@H](C(C)C)NC(=O)[C@H](CC(C)C)NC(=O)[C@H](CC(C)C)N(C)C(=O)[C@H](Cc2ccc(Br)cc2)NC1=O [Compound 1c] (cyclo([Phe(4-Br)][NMeL]LVL)) | – | 0.75 | – | 0.56 | – | 1.10 | – | – | induced | – | – | –
7 | CC(C)C[C@@H]1NC(=O)[C@H](Cc2ccccc2)NC(=O)[C@H](CC(C)C)N(C)C(=O)[C@H](C(C)C)NC(=O)[C@H](CC(C)C)NC1=O [Compound 1h] (cyclo(FLLV[NMeL])) | – | 0.79 | 0.64 | 1.01 | 0.28 | 1.13 | 0.51 | – | – | – | – | –
8 | CC(C)C[C@@H]1NC(=O)[C@H](CC(C)C)NC(=O)[C@H](Cc2ccccc2)N(C)C(=O)[C@H](CC(C)C)NC(=O)[C@H](C(C)C)NC1=O [Compound 1j] (cyclo([NMeF]LLVL)) | – | 0.86 | 0.8 | 0.78 | 0.82 | 1.75 | 0.60 | – | – | – | – | –
9 | CC(C)C[C@@H]1NC(=O)[C@H](C(C)C)NC(=O)[C@H](CC(C)C)NC(=O)[C@H](CC(C)C)N(C)C(=O)[C@H](Cc2ccccc2)NC1=O [Compound 1b] (cyclo(F[NMeL]LVL)) | – | 1.24 | 0.81 | 0.87 | 0.71 | 1.02 | 3.02 | – | – | – | – | –
10 | CC(C)C[C@@H]1NC(=O)[C@H](C(C)C)NC(=O)[C@H](CC(C)C)N(C)C(=O)[C@H](CC(C)C)NC(=O)[C@H](Cc2ccc(Br)cc2)NC1=O [drawing 9] (cyclo([Phe(4-Br)]L[NMeL]VL)) | 0.11 (≈ 0.162 µM) | – | – | – | – | – | – | ~100 times | – | – | – | –
11 | COc1cc([C@@H]2c3cc4c(cc3[C@@H](O[C@@H]3O[C@@H]5CO[C@@H](C)O[C@H]5[C@H](O)[C@H]3O)[C@H]3COC(=O)[C@H]23)OCO4)cc(OC)c1O [etoposide, reference compound] | – | – | – | – | – | – | – | – | – | 1.5 (≈ 2.55 µM) | – | –
12 | CC(C)C[C@@H]1NC(=O)[C@H](C(C)C)NC(=O)[C@H](CC(C)C)OC(=O)[C@H](CC(C)C)NC(=O)[C@H](Cc2ccc(I)cc2)NC1=O (cyclo(L[Phe(4-I)]L[Hica(2S)]V)) | 11.3 (≈ 15.9 µM) | – | – | – | – | – | – | – | – | – | – | –
13 | CC(C)C[C@@H]1NC(=O)[C@H](Cc2ccccc2)NC(=O)[C@H](Cc2ccccc2)N(C)C(=O)[C@H](Cc2ccccc2)NC(=O)C(C)(C)NC(=O)[C@H](CC(C)C)N(C)C(=O)[C@@H]2CCCN2C1=O [Scytalidamide A, reference compound] (cyclo(F[NMeF]FLP[NMeL][Aib])) | – | 0.63 | 0.15 | 2.75 | 0.11 | 1.01 | 0.07 | – | – | – | significant (p<0.05) decrease | exception
14 | CC(C)C[C@@H]1NC(=O)[C@H](C(C)C)NC(=O)[C@H](CC(C)C)N(C)C(=O)[C@H](CC(C)C)NC(=O)[C@H](Cc2ccccc2)NC1=O [Compound 1d] (cyclo(FL[NMeL]VL)) | – | 0.63 | 0.52 | 1.09 | 0.91 | 0.87 | 0.98 | – | – | – | – | –
15 | CC(C)C[C@@H]1NC(=O)[C@H](C(C)C)NC(=O)[C@H](CC(C)C)N(C)C(=O)[C@H](CC(C)C)NC(=O)[C@H](Cc2ccc(Br)cc2)NC1=O [Compound 1e] (cyclo([Phe(4-Br)]L[NMeL]VL)) | – | 0.62 | 0.82 | 1.20 | 0.82 | 0.89 | 0.95 | – | – | – | – | –
